These results are taken from patent EP3436445B1, “HISTONE DEMETHYLASE INHIBITORS” (Celgene Quanticel Research, Inc., priority 2016, dated 2017).

In one assay the target is T1, JMJD2C (Homo sapiens, UniProt Q9H3R0).
T1 construct: purchased BPS Bioscience 50105
T1 sequence (Q9H3R0 2-372): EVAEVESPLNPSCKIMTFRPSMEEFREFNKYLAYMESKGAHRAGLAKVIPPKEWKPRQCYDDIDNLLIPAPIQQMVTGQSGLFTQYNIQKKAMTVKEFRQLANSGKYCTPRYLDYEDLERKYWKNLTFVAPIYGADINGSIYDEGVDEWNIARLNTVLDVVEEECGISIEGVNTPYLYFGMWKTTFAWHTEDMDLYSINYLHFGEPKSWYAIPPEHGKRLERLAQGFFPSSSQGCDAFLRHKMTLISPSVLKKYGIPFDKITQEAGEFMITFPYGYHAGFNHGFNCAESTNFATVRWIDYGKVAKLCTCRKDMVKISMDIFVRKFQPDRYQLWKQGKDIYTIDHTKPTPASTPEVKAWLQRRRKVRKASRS
Description: JMJD2C in vitro enzyme inhibition assay (TR-FRET). The class given is biochemical. The conditions noted are these: Table 5; 0.3 nM JMJD2C, H3K9me3-biotin labeled peptide. The source says: (§1) This assay determines the ability of a test compound to inhibit Jarid1B, JMJD2C and JMJD3 demethylase activity. Baculovirus expressed Jarid1B (GenBank Accession #NM-006618, AA 2-751) was purchased from BPS Bioscience (Cat #50121) or custom made by MolecularThroughput. Baculovirus expressed JMJD2C (GenBank Accession #BC143571, AA 2-372) was purchased from BPS Bioscience (Cat#50105). Baculovirus expressed JMJD3 (GenBank Accession #NM-001080424, AA1043-end) was purchased from BPS Bioscience (Cat#50115).
The ability of test compounds to inhibit the activity of JMJD2C was determined in 384-well plate format under the following reaction conditions: 0.3 nM JMJD2C, 300 nM H3K9me3-biotin labeled peptide (Anaspec cat #64360), 2 µM alpha-ketoglutaric acid in assay buffer of 50 mM HEPES, pH7.3, 0.005% Brij35, 0.5 mM TCEP, 0.2 mg/ml BSA, 50 µM sodium L-ascorbate, and 2 µM ammonium iron(II) sulfate. Reaction product was determined quantitatively by TR-FRET after the addition of detection reagent Phycolink Streptavidin-allophycocyanin (Prozyme) and Europium-anti-di-methylated histone H3 lysine 9 (H3K9me2) antibody (PerkinElmer) in the presence of 5 mM EDTA in LANCE detection buffer (PerkinElmer) at a final concentration of 50 nM and 1 nM, respectively.
The assay reaction was initiated by the following: 2 µl of the mixture of 900 nM H3K9me3-biotin labeled peptide and 6 µM alpha-ketoglutaric acid with 2 µl of 11-point serial diluted inhibitor in 3% DMSO were added to each well of the plate, followed by the addition of 2 µl of 0.9 nM JMJD2C to initiate the reaction. The reaction mixture was incubated at room temperature for 30 minutes, and terminated by the addition of 6 µl of 5 mM EDTA in LANCE detection buffer containing 100 nM Phycolink Streptavidin-allophycocyanin and 2 nM Europium-anti-H3K9me2 antibody. Plates were read by EnVisionMultilabel Reader in TR-FRET mode (excitation at 320 nm, emission at 615 nm and 665 nm) after 1 hour incubation at room temperature. A ratio was calculated (665/615) for each well and fitted to determine inhibition constant (IC50).
(In general: Time-resolved FRET reads energy transfer from a long-lived donor to a nearby acceptor.)

The next assay addresses T2, JMJD3 (Homo sapiens, UniProt O15054).
T2 construct: purchased BPS Bioscience 50115
Description: JMJD3 in vitro enzyme inhibition assay (AlphaScreen). The class given is biochemical. The conditions noted are these: Table 5; 1 nM JMJD3, H3K27me3-biotin labeled peptide.
From the text: as §1
The ability of test compounds to inhibit the activity of JMJD3 was determined in 384-well plate format under the following reaction conditions: 1 nM JMJD3, 250 nM H3K27me3-biotin labeled peptide (Anaspec cat # 64367), 1 µM alpha-ketoglutaric acid in assay buffer of 50 mM HEPES, pH7.3, 0.005% Brij35, 0.5 mM TCEP, 0.2 mg/ml BSA, 50 µM sodium L-ascorbate, 5 µM ammonium iron(II) sulfate. Reaction product is determined quantitatively by AlphaScreen detection after the addition of detection reagents anti-H3K27me1 antibody, 5 µg/ml AlphaScreen® Streptavidin-coated Donor beads, and 5 µg/ml AlphaScreen® Protein A Acceptor beads in 50 mM HEPES, pH7.3, 10 mM NaCl, 0.005% Brij35, 10 mM EDTA, 2 mg/ml BSA.
The assay reaction was initiated by the following: 3 µl of the mixture of 750 nM H3K27me3-biotin labeled peptide and 3 µM alpha-ketoglutaric acid with 3 µl of 11-point serial diluted inhibitor in 3% DMSO are added to each well of 384 well Proxiplate (Perkin Elmer), followed by the addition of 3 µl of 3 nM JMJD3 to initiate the reaction. The reaction mixture is incubated at room temperature for 20 minutes, and terminated by the addition of 3 µl of appropriate dilution of anti H3K27me1 antibody in 50 mM HEPES, pH7.3, 10 mM NaCl, 0.005% Brij35, 10 mM EDTA, 2 mg/ml BSA. Plates will then incubated at room temperature for 1 hour, followed by addition of 3 µl of 25 µg/ml AlphaScreen® Streptavidin-coated Donor beads and AlphaScreen® Protein A Acceptor beads in 50 mM HEPES, pH7.3, 10 mM NaCl, 0.005% Brij35, 10 mM EDTA, 2 mg/ml BSA. Plates will then be read by EnVision Multilabel Reader in AlphaScreen mode after minimum 2 hour incubation at room temperature. The AlphaScreen signal for each well is used to determine inhibition constant (IC50).
Background: Bead proximity is the source of the signal in Alpha formats.

T2 sequence (O15054 1043-1682 isoform O15054-1): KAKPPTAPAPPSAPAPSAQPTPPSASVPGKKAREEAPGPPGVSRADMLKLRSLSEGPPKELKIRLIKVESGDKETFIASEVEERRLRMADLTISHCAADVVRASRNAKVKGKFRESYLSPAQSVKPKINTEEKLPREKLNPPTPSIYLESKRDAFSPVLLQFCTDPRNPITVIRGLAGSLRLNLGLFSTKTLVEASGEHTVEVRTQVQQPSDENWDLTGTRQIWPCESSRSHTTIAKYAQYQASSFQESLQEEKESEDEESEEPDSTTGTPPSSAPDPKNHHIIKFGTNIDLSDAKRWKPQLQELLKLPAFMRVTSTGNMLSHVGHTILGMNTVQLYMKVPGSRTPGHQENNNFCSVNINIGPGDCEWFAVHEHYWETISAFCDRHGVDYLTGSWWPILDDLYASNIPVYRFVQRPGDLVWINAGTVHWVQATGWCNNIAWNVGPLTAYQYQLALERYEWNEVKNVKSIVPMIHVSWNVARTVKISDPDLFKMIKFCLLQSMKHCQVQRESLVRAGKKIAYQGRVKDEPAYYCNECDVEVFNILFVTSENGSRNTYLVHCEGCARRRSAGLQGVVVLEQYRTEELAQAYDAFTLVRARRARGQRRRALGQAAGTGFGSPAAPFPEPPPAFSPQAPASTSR

Regarding `Fc1cccc2c1CCCC2Cn1cnc(-c2cc(-c3nn[nH]c3C(F)(F)F)ccn2)c1` (stereo not shown) [Example 99, 2-{1-[(5-fluoro-1,2,3,4-tetrahydronaphthalen-1-yl)methyl]-1H-imidazol-4-yl}-4-[5-(trifluoromethyl)-1H-1,2,3-triazol-4-yl]pyridine], the IC50 at JMJD2C and at JMJD3 was more than 10 µM each time.
With `Fc1ccc2c(c1)CCCC2Cn1cnc(-c2cc(-c3nn[nH]c3C(F)(F)F)ccn2)c1` (stereo not shown) [Example 100, 2-{1-[(6-fluoro-1,2,3,4-tetrahydronaphthalen-1-yl)methyl]-1H-imidazol-4-yl}-4-[5-(trifluoromethyl)-1H-1,2,3-triazol-4-yl]pyridine], the IC50 on JMJD2C and at JMJD3 was more than 10 µM each time.
Regarding `Cc1ccccc1Cn1cnc(-c2cc(-c3nn[nH]c3C(F)(F)F)ccn2)c1` [Example 66, 2-{1-[(2-methylphenyl)methyl]-1H-imidazol-4-yl}-4-[5-(trifluoromethyl)-1H-1,2,3-triazol-4-yl]pyridine], the IC50 at JMJD2C and against JMJD3 was more than 10 µM each time.
For the molecule `Fc1cccc(F)c1Cn1cnc(-c2cc(-c3nn[nH]c3C(F)(F)F)ccn2)c1` [Example 69, 2-{1-[(2,6-difluorophenyl)methyl]-1H-imidazol-4-yl}-4-[5-(trifluoromethyl)-1H-1,2,3-triazol-4-yl]pyridine], the IC50 against JMJD2C and on JMJD3 was more than 10 µM each time.
`COc1cccc2c1C(Cn1cnc(-c3cc(-c4nn[nH]c4C(F)(F)F)ccn3)c1)CCC2` (stereo not shown) [Example 107, 2-{1-[(8-methoxy-1,2,3,4-tetrahydronaphthalen-1-yl)methyl]-1H-imidazol-4-yl}-4-[5-(trifluoromethyl)-1H-1,2,3-triazol-4-yl]pyridine]: the IC50 against JMJD2C and against JMJD3 was more than 10 µM in each case.
On to `Fc1cc(F)c(CCn2cnc(-c3cc(-c4nn[nH]c4C(F)(F)F)ccn3)c2)cc1F` [Example 81, 4-[5-(trifluoromethyl)-1H-1,2,3-triazol-4-yl]-2-{1-[2-(2,4,5-trifluorophenyl)ethyl]-1H-imidazol-4-yl}pyridine], for which the IC50 at JMJD2C and against JMJD3 was more than 10 µM throughout.
In the case of `COc1ccc2c(c1)CCCC2Cn1cnc(-c2cc(-c3nn[nH]c3C(F)(F)F)ccn2)c1` (stereo not shown) [Example 105, 2-{1-[(6-methoxy-1,2,3,4-tetrahydronaphthalen-1-yl)methyl]-1H-imidazol-4-yl}-4-[5-(trifluoromethyl)-1H-1,2,3-triazol-4-yl]pyridine], the half-inhibitory concentration (IC50) on JMJD2C and against JMJD3 was more than 10 µM in each case.
Consider `Fc1ccc(CCn2cnc(-c3cc(-c4nn[nH]c4C(F)(F)F)ccn3)c2)c(F)c1` [Example 86, 2-{1-[2-(2,4-difluorophenyl)ethyl]-1H-imidazol-4-yl}-4-[5-(trifluoromethyl)-1H-1,2,3-triazol-4-yl]pyridine], for which the IC50 on JMJD2C and against JMJD3 was more than 10 µM each time.
Regarding `O=C(c1ccccc1)N1CCC[C@H](n2cnc(-c3cc(-c4nn[nH]c4C(F)(F)F)ccn3)c2)C1` [Example 90, 2-{1-[(3S)-1-benzoylpiperidin-3-yl]-1H-imidazol-4-yl}-4-[5-(trifluoromethyl)-1H-1,2,3-triazol-4-yl]pyridine], the IC50 against JMJD2C and on JMJD3 was more than 10 µM in each case.
As to `FC(F)(F)c1[nH]nnc1-c1ccnc(-c2cn(CC3CCc4ccccc43)cn2)c1` (stereo not shown) [Example 83, 2-{1-[(2,3-dihydro-1H-inden-1-yl)methyl]-1H-imidazol-4-yl}-4-[5-(trifluoromethyl)-1H-1,2,3-triazol-4-yl]pyridine], at JMJD2C, the IC50 – broadly, the point on the concentration scale where inhibition reaches its midpoint – was in the range of 1 to 10 µM.
On to `Fc1ccc(Cn2cnc(-c3cc(-c4nn[nH]c4C(F)(F)F)ccn3)c2)cc1` [Example 61, 2-{1-[(4-fluorophenyl)methyl]-1H-imidazol-4-yl}-4-[5-(trifluoromethyl)-1H-1,2,3-triazol-4-yl]pyridine], for which the IC50 against JMJD2C and on JMJD3 was more than 10 µM each time.
Consider `FC(F)(F)c1[nH]nnc1-c1ccnc(-c2cn(Cc3ccc(Cl)cc3)cn2)c1` [Example 63, 2-{1-[(4-chlorophenyl)methyl]-1H-imidazol-4-yl}-4-[5-(trifluoromethyl)-1H-1,2,3-triazol-4-yl]pyridine], for which the 50% inhibitory concentration (IC50) on JMJD2C and against JMJD3 was more than 10 µM each time.
In the case of `Cc1ccc2c(c1)CCCC2Cn1cnc(-c2cc(-c3nn[nH]c3C(F)(F)F)ccn2)c1` (stereo not shown) [Example 102, 2-{1-[(6-methyl-1,2,3,4-tetrahydronaphthalen-1-yl)methyl]-1H-imidazol-4-yl}-4-[5-(trifluoromethyl)-1H-1,2,3-triazol-4-yl]pyridine], the half-inhibitory concentration (IC50) against JMJD2C and against JMJD3 was more than 10 µM each time.
As to `FC(F)(F)c1[nH]nnc1-c1ccnc(-c2cn(CC3CCCc4ccccc43)cn2)c1` (stereo not shown) [Example 58, 2-{1-[(1,2,3,4-tetrahydronaphthalen-1-yl)methyl]-1H-imidazol-4-yl}-4-[5-(trifluoromethyl)-1H-1,2,3-triazol-4-yl]pyridine], the IC50 against JMJD2C and against JMJD3 was more than 10 µM each time.
Regarding `Fc1ccc2c(c1)C(n1cnc(-c3cc(-c4nn[nH]c4C(F)(F)F)ccn3)c1)CC2` (stereo not shown) [Example 85, 2-[1-(6-fluoro-2,3-dihydro-1H-inden-1-yl)-1H-imidazol-4-yl]-4-[5-(trifluoromethyl)-1H-1,2,3-triazol-4-yl]pyridine], at JMJD2C, the IC50 lay within 1 to 10 µM.
On to `FC(F)(F)c1[nH]nnc1-c1ccnc(-c2cn(CCc3ccc(Cl)cc3)cn2)c1` [Example 92, 2-{1-[2-(4-chlorophenyl)ethyl]-1H-imidazol-4-yl}-4-[5-(trifluoromethyl)-1H-1,2,3-triazol-4-yl]pyridine], for which the IC50 against JMJD2C and at JMJD3 was more than 10 µM each time.
Take `FC(F)(F)c1ccc(CCn2cnc(-c3cc(-c4nn[nH]c4C(F)(F)F)ccn3)c2)cc1` [Example 94, 4-[5-(trifluoromethyl)-1H-1,2,3-triazol-4-yl]-2-(1-{2-[4-(trifluoromethyl)phenyl]ethyl}-1H-imidazol-4-yl)pyridine]: the IC50 on JMJD2C and on JMJD3 was more than 10 µM throughout.
On JMJD2C, `Fc1ccccc1CCn1cnc(-c2cc(-c3nn[nH]c3C(F)(F)F)ccn2)c1` [Example 84, 2-{1-[2-(2-fluorophenyl)ethyl]-1H-imidazol-4-yl}-4-[5-(trifluoromethyl)-1H-1,2,3-triazol-4-yl]pyridine] showed a concentration for half-maximal inhibition (IC50) of more than 10 µM.
Still for that read-out and setting: with `FC(F)(F)c1ccccc1CCn1cnc(-c2cc(-c3nn[nH]c3C(F)(F)F)ccn2)c1` [Example 60, 4-[5-(trifluoromethyl)-1H-1,2,3-triazol-4-yl]-2-(1-{2-[2-(trifluoromethyl)phenyl]ethyl}-1H-imidazol-4-yl)pyridine] the figure was 1 to 10 µM.
